The values that follow come from patent US20180353501A1 (Arvinas, Inc., priority 2017, published 2018).

Experiment [1] deals with T1, p38α (Homo sapiens, UniProt Q16539).
T1 construct: selectively degrades p38α, whereas exemplary PROTAC 46 (10-atom linker, phenyl attachment) selectively degrades p38δ in MDA-MB-231 cells; endogenous in cells; host or cells: MDA-MB-231
Kind of experiment: Cellular assay of target protein degradation (MDA-MB-231 cells, ELISA). The experiment is classed as cell-based. On the procedure:
(§1) Protocol of the cellular assay of target protein degradation (MDA-MB-231 cells, ELISA).
(§2) For detection Cell Signaling PathScan Sandwich ELISA Catalog#12850 was used. MDA-MB-231 cells and […] were cultured in ATCC DMEM+ATCC FBS and plated 40,000/well 100 μl/well in RPMI P/S with 5% CSS Omega (bovine) serum into a 96 well plate. The cells were grown for a minimum of 3 days, dosed with compounds in 0.1% DMSO (diluted with 5% CSS) and incubated with aspiration for 4 hours. 100 μl of 1× Cell Signaling lysis buffer #9803 (36 mL dH2O+4 mL Cell Signaling lysis buffer) was added. The incubation was placed on cold room shaker for 10 minutes at speed 8-9.5 μl to 100 μL of Diluent was transferred to ELISA plate (0.15 μg/mL-0.075 μg/mL) and stored at 4° C. overnight on cold room shaker speed 5 (gentle swirl) and then shaken next morning at 37° C. for 30 minutes. The preparation was washed 4×200 μl with ELISA wash buffer and aspirated with eight-channel aspirator. 100 μl/well of target protein detection antibody was added after, which the preparation was covered and shaken at 37° C. for 1 hour. 100 μl TMB was added, and the mixture was shaken for 5 min while under observation. When TMB turned light blue, 100 μl of Stop solution was added, and the mixture was shaken and read at 450 nm. Also read at 562 nm for background subtraction.

The target of experiment [2] is T2, p38δ (Homo sapiens, UniProt O15264).
T2 construct: endogenous in cells; host or cells: MDA-MB-231 (intact cells for degradation; cleared cell lysate for CETSA)
T2 sequence (O15264 1-365): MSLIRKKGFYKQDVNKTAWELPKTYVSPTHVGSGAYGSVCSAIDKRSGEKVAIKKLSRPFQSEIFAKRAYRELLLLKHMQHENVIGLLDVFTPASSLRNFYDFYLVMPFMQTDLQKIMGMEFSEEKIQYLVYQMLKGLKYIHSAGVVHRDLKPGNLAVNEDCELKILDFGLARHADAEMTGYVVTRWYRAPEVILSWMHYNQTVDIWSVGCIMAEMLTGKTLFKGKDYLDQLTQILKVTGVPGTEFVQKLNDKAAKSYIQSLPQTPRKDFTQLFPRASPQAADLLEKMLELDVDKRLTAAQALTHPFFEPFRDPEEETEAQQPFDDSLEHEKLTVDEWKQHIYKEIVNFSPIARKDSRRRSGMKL
The description is as above. Format: cell-based. Conditions: for DC50: read-out: p38δDC50/nM [MDA-MB-231]. On the procedure: as §1, §2

The target in experiment [3] is T3, p38δ:PROTAC:VHL ternary complex (Homo sapiens, UniProt O15264+P40337).
T3 construct: encoding a region spanning amino acids 1-365 was PCR-amplified; His6 (N); made in house; host or cells: E. coli (BL21-CodonPlus(DE3)-RIPL for p38δ; BL21(DE3) for GST-VBC)
Kind of experiment: SPR ternary complex affinity and kinetics. Format: binding. The conditions noted are these: for Kd: equimolar p38δ:PROTAC injected onto immobilized GST-VBC. The method, then: FIGS. 16A, 16B, and 16C. SPR curves assessing binary and ternary interactions. […] (C) SPR kinetic evaluation of p38δ:compound 46:VHL and p38δ:compound 50:VHL ternary complex interactions. Equimolar p38δ:PROTAC mixtures were injected onto immobilized GST-VBC and allowed to dissociate overtime. […] See Table 12 for a summary of the binary and ternary affinity and kinetic measurements.
Next, with the same setup, equimolar p38δ:PROTAC dilutions were successively injected onto immobilized VHL for 60 seconds, prior to monitoring complex dissociation for the remaining 300 seconds. This SPR strategy enabled us to determine effective ternary affinities for a given p38δ:PROTAC:VHL complex and compare the relative affinity change that occurs between VHL:PROTAC when p38δ is present in the mixture. […] This “enhanced” composite affinity is likely due to the additional PPIs between VHL and p38δ when in the presence of exemplary compound 46.
SPR experiments were conducted on a Biacore 3000 instrument (GE Healthcare) at room temperature. GST antibody was immobilized through direct amination onto a carboxymethylated dextran surface (CM5) and GST-VBC was captured on the CM5 surface. This prepared surface was equilibrated over three hours in running buffer (10 mM HEPES buffer pH 7.4, 150 mM NaCl, 0.4 mg mL^−1 BSA, 0.005% P20, 2% DMSO). All compounds were prepared in 100% DMSO stock plates with a top concentration of 500 μM in a 3× serial dilution. Exemplary compounds were transferred from the stock plate to the assay plate and diluted into running buffer without DMSO. Equimolar concentration of target protein was added to corresponding compound wells. All exemplary compounds were run as a twelve point-concentration series with a final assay top concentration of 50 μM to measure p38δ:PROTAC and VHL:PROTAC binding and top concentration of 5 μM to measure p38δ:PROTAC:VHL binding. All exemplary compounds were injected for 60 seconds and allowed to dissociate for 300 seconds. Data analysis was performed in Scrubber 2 (BioLogic Software). Blanks from reference flow cell containing immobilized GST-VBC were subtracted to correct for noise and data was solvent-corrected against a standard DMSO curve.

Experiment [4] concerns the target T4, cMET (Homo sapiens, UniProt P08581).
T4 construct: endogenous in cells; host or cells: MDA-MB-231
Briefly: Cellular assay of target protein degradation (MDA-MB-231 cells, ELISA). Format: cell-based. On the procedure: as §1, §2

The mark [5] stands for this setting: SPR, immobilized GST-VBC, listed as Ex. 50.

Where “and” joins values, the source holds several entries; their conditions need not be identical. Equal values may be shown once. Read-outs that look alike come from different tables or passages of the source. A value given as a limit tells only on which side of the number the result lay.

T1 sequence (Q16539 whole entry): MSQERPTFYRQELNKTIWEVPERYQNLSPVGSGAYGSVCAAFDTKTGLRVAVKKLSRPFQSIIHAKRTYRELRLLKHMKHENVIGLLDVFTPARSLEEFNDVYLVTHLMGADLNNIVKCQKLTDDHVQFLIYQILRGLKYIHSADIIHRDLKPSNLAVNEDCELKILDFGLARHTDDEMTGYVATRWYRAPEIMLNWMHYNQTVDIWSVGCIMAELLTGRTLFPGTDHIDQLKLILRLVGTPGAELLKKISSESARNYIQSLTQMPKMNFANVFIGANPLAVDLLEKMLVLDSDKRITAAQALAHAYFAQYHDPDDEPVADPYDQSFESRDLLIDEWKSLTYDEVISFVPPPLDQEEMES
T3 sequence (P40337 whole entry, one chain of several, the tested form may be a part): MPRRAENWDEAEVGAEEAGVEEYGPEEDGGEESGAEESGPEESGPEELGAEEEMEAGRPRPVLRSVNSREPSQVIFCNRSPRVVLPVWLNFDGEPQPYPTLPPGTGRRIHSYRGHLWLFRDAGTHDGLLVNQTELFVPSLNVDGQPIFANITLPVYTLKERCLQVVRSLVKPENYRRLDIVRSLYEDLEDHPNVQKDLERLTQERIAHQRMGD
T3 sequence (Q15370 whole entry partner, one chain of several, the tested form may be a part): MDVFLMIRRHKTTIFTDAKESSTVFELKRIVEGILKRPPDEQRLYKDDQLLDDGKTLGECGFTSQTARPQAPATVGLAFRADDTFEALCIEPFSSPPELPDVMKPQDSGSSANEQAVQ
T3 sequence (Q15369 whole entry partner, one chain of several, the tested form may be a part): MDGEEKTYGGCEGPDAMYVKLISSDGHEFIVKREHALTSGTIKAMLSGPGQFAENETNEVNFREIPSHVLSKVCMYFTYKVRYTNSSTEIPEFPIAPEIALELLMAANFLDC
T4 sequence (P08581 25-1390): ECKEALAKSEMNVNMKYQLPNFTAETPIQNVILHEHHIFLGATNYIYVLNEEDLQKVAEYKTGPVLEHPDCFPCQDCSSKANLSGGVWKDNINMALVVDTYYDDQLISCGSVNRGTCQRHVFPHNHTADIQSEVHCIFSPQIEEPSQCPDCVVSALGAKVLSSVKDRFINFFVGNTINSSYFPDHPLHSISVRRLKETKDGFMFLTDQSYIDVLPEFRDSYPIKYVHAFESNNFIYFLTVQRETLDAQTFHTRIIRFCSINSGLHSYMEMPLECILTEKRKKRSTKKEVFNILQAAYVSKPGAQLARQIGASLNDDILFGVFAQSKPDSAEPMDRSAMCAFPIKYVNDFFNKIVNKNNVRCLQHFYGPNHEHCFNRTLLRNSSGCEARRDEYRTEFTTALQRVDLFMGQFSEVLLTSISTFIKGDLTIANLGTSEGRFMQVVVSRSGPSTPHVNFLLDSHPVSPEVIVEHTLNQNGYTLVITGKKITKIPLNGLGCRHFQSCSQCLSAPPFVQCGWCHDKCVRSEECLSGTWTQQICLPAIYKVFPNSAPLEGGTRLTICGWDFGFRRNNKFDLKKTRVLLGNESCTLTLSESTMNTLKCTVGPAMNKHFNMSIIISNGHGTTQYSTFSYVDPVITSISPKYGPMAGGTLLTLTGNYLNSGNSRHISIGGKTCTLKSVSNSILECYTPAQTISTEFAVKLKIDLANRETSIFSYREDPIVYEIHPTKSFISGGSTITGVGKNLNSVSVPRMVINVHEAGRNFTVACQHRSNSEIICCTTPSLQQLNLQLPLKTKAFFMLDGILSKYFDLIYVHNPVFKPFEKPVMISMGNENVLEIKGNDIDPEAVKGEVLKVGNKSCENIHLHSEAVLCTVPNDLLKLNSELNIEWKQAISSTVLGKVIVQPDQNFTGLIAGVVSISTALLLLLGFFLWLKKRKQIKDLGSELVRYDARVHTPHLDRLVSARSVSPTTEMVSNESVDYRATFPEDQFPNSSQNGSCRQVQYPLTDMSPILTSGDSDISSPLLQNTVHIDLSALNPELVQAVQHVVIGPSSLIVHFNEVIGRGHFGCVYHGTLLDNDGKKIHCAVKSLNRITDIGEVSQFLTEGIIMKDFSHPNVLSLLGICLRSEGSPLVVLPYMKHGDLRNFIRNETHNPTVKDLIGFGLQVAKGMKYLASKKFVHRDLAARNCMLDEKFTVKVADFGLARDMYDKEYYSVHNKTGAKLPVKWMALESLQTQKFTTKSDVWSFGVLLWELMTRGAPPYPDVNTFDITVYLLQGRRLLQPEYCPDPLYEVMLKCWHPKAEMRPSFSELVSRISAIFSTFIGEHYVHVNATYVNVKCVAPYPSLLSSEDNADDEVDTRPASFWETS

In experiment [1], `COc1cc2c(Oc3ccc(NC(=O)C4(C(=O)Nc5ccc(F)cc5)CC4)cc3F)ccnc2cc1OCCOCCOCCOc1cc(-c2scnc2C)ccc1CNC(=O)[C@@H]1C[C@@H](O)CN1C(=O)[C@H](C(C)C)N1Cc2ccccc2C1=O` [compound 46] yielded a DC50 above 5000 nM and a Dmax of 33%. In experiment [2], the Dmax stood at 93% and the DC50 amounted to 84.9 nM. Besides, the “leftward shift of ternary affinity from the VHL:PROTAC binary affinity” value in experiment [3] (SPR) is reported as around 8 fold. Further, in experiment [3] (SPR, immobilized GST-VBC), the koff was 0.0175 s⁻¹, the kon was 39600 M⁻¹ s⁻¹ and the residence time is 5.5 min. The “p38δ:PROTAC:VHL kon” value in experiment [3] (SPR, immobilized GST-VBC, listed as Ex. 46) was 39621 M⁻¹ s⁻¹. Moreover, the Kd in experiment [3] (read-out: p38δ:PROTAC:VHL Kd) was found to be 436 nM.

Turning to `COc1cc2c(Oc3ccc(NC(=O)C4(C(=O)Nc5ccc(F)cc5)CC4)cc3F)ccnc2cc1OCCCCOCCCCOCC(=O)N[C@H](C(=O)N1C[C@H](O)C[C@H]1C(=O)NCc1ccc(-c2scnc2C)cc1)C(C)(C)C` [compound 50, N-(3-fluoro-4-((7-(4-(4-(2-(((S)-1-((2S,4R)-4-hydroxy-2-((4-(4-methylthiazol-5-yl)benzyl)carbamoyl)pyrrolidin-1-yl)-3,3-dimethyl-1-oxobutan-2-yl)amino)-2-oxoethoxy)butoxy)buto-xy)-6-methoxyquinolin-4-yl)oxy)phenyl)-N-(4-fluorophenyl)cyclopropane-1,1-dicarboxa-mide], in experiment [4], the DC50 was 36 nM and the Dmax stood at 88%. Further, in experiment [1], the DC50 amounted to 9.5 nM and the Dmax was 99%. Also, in experiment [2], the Dmax was found to be 18% and the DC50 is above 5000 nM. Besides, in experiment [3] (SPR), the “off-rate quicker than the p38δ:compound 46:VHL complex” value is around 5 fold, the “residence time shorter than the p38δ:compound 46:VHL complex” value was around 4 fold and the “ternary affinity weaker than the exemplary compound 46-induced complex” value is around 3 fold. In addition, in experiment [3] (SPR, immobilized GST-VBC), the kon was 70100 M⁻¹ s⁻¹ and the residence time was 1.33 min. In experiment [3] (setting [5]), the “p38δ:PROTAC:VHL koff” value is 0.072 s⁻¹ and the “p38δ:PROTAC:VHL kon” value amounted to 70119 M⁻¹ s⁻¹. For the same compound, the Kd in experiment [3] (read-out: p38δ:PROTAC:VHL affinity) is 1200 nM and > 1000 nM.

For the compound `COc1cc2c(Oc3ccc(NC(=O)C4(C(=O)Nc5ccc(F)cc5)CC4)cc3F)ccnc2cc1OCCCOCCCOCCC(=O)N[C@H](C(=O)N1C[C@H](O)C[C@H]1C(=O)NCc1ccc(-c2scnc2C)cc1)C(C)(C)C` [Example 1], the “c-Met protein degradation (dose response)” value in experiment [4] (ELISA) is “significant targeted degradation”.
